{"source": "patent US8067424B2", "about": "“Selective inhibitors for cyclin-dependent kinases” (Emory University, priority 2007, dated 2011)", "key": {"[1]": {"system": "MCF-7 tumors", "experiment": "MCF-7 tumor growth in nude mice, BS-181 i.p.", "format": "in vivo, nu/nu-BALB/c athymic nude mice", "conditions": "i.p. twice daily, 14 days", "source_text": "This example illustrates that BS-181 is capable of inhibiting MCF-7 tumor growth in nude mice. The following protocol was used in these mouse xenograft experiments. Female, 7-week-old, nu/nu-BALB/c athymic nude mice were purchased from Harlan Olac Ltd. The animals were housed in isolated ventilator cages (IVC) in a 12-h light/dark cycle. The animals received sterilized water and sterile rodent food ad libitum. All procedures were approved by the CBS, Imperial College London Ethics Committee and were covered by a Government Home Office project license for these specific studies. Before inoculation of animal with cells, a 0.72 mg 17β Estradiol 60-day release pellet was implanted subcutaneously (Innovative Research of America, USA). For insertion, animals were anaesthetised, an incision was made to the flank of the animals under aseptic conditions and pellets were implanted. The wound was closed with stainless steel sutures. MCF-7 cells (5×10^6 cells) were injected subcutaneously in not more than 0.1 ml volume into the flank of the animals. Tumor measurements were performed twice per week, and volumes were calculated using the formula ½ [length (mm)]×[width (mm)]^2. […] Throughout the 14-day treatment period animal weights were determined each day and tumor volume every 48 hours."}, "[2]": {"system": "A549/ATCC", "conditions": "for Mean Optical Densities / Percent Growth: A549/ATCC"}, "[3]": {"system": "COLO 205"}, "[4]": {"system": "LOX IMVI", "conditions": "for Mean Optical Densities / Percent Growth: LOX IMVI"}, "[5]": {"system": "SK-MEL-5"}, "[6]": {"system": "TK-10"}, "[7]": {"system": "PC-3"}, "[8]": {"system": "K-562", "experiment": "cells", "conditions": "Homo sapiens"}, "[9]": {"system": "NCI-H226", "experiment": "cells", "conditions": "Homo sapiens"}, "[10]": {"system": "NCI-H522", "experiment": "cells", "conditions": "Homo sapiens"}, "[11]": {"system": "COLO 205", "experiment": "cells", "conditions": "Homo sapiens"}, "[12]": {"system": "SW-620", "experiment": "cells", "conditions": "Homo sapiens"}, "[13]": {"system": "SNB-75", "experiment": "cells", "conditions": "Homo sapiens"}, "[14]": {"system": "SK-OV-3", "experiment": "cells", "conditions": "Homo sapiens"}, "[15]": {"system": "NCI/ADR-RES", "experiment": "cells", "conditions": "Homo sapiens"}, "[16]": {"system": "MDA-MB-435", "experiment": "cells", "conditions": "Homo sapiens"}, "[17]": {"conditions": "COLO 205, log10 concentration −4.0"}, "[18]": {"conditions": "COLO 205, log10 concentration −5.0"}, "[19]": {"conditions": "COLO 205, log10 concentration −6.0"}, "[20]": {"conditions": "COLO 205, log10 concentration −7.0"}, "[21]": {"conditions": "COLO 205, log10 concentration −8.0"}, "[22]": {"conditions": "SK-MEL-5, log10 concentration −4.0"}, "[23]": {"conditions": "SK-MEL-5, log10 concentration −5.0"}, "[24]": {"conditions": "SK-MEL-5, log10 concentration −6.0"}, "[25]": {"conditions": "SK-MEL-5, log10 concentration −7.0"}, "[26]": {"conditions": "SK-MEL-5, log10 concentration −8.0"}, "[27]": {"conditions": "TK-10, log10 concentration −4.0"}, "[28]": {"conditions": "TK-10, log10 concentration −5.0"}, "[29]": {"conditions": "TK-10, log10 concentration −6.0"}, "[30]": {"conditions": "TK-10, log10 concentration −7.0"}, "[31]": {"conditions": "TK-10, log10 concentration −8.0"}}, "note": "Where two headings read alike, the source gives them in different places.", "data": [{"smiles": "CC(C)c1cnn2c(NCc3ccccc3)cc(NCCCCCCCN)nc12", "note": "[BS-181]", "values": [{"measurement": "Change in animal weight", "setting": "[1]", "result": "nearly constant"}, {"measurement": "Increase in tumor volume relative to day one", "setting": "[1]; different doses", "result": "increased more slowly with increasing dosage"}]}, {"smiles": "CC(C)c1cnn2c(NCc3ccccc3)cc(N[C@@H](CO)[C@H](O)CO)nc12", "note": "[ICEC0318, (3S)-3-(7-(Benzylamino)-3-isopropylpyrazolo[1,5-a]pyrimidin-5-ylamino)butane-1,2,4-triol]", "values": [{"measurement": "TGI", "setting": "[2]; A549/ATCC (Non-Small Cell Lung Cancer)", "result": ">1.00E−4"}, {"measurement": "Mean Optical Densities", "setting": "[2]; log10 concentration −4.0", "result": 0.346}, {"measurement": "Percent Growth", "setting": "[2]; log10 concentration −4.0", "result": 4, "unit": "%"}, {"measurement": "Mean Optical Densities", "setting": "[2]; log10 concentration −5.0", "result": 0.417}, {"measurement": "Percent Growth", "setting": "[2]; log10 concentration −5.0", "result": 10, "unit": "%"}, {"measurement": "Mean Optical Densities", "setting": "[2]; log10 concentration −6.0", "result": 0.422}, {"measurement": "Percent Growth", "setting": "[2]; log10 concentration −6.0", "result": 11, "unit": "%"}, {"measurement": "Mean Optical Densities", "setting": "[2]; log10 concentration −7.0", "result": 1.369}, {"measurement": "Percent Growth", "setting": "[2]; log10 concentration −7.0", "result": 94, "unit": "%"}, {"measurement": "Mean Optical Densities", "setting": "[2]; log10 concentration −8.0", "result": 1.447}, {"measurement": "Percent Growth", "setting": "[2]; log10 concentration −8.0", "result": 101, "unit": "%"}, {"measurement": "TGI", "setting": "[3]; COLO 205 (Colon Cancer)", "result": "3.82E−7"}, {"measurement": "Mean Optical Densities", "setting": "[3]; [17]", "result": 0.030}, {"measurement": "Percent Growth", "setting": "[3]; [17]", "result": "−77", "unit": "%"}, {"measurement": "Mean Optical Densities", "setting": "[3]; [18]", "result": 0.050}, {"measurement": "Percent Growth", "setting": "[3]; [18]", "result": "−62", "unit": "%"}, {"measurement": "Mean Optical Densities", "setting": "[3]; [19]", "result": 0.065}, {"measurement": "Percent Growth", "setting": "[3]; [19]", "result": "−50", "unit": "%"}, {"measurement": "Mean Optical Densities", "setting": "[3]; [20]", "result": 0.372}, {"measurement": "Percent Growth", "setting": "[3]; [20]", "result": 70, "unit": "%"}, {"measurement": "Mean Optical Densities", "setting": "[3]; [21]", "result": 0.499}, {"measurement": "Percent Growth", "setting": "[3]; [21]", "result": 107, "unit": "%"}, {"measurement": "TGI", "setting": "[4]; LOX IMVI (Melanoma)", "result": "1.46E−5"}, {"measurement": "Mean Optical Densities", "setting": "[4]; log10 concentration −4.0", "result": 0.224}, {"measurement": "Percent Growth", "setting": "[4]; log10 concentration −4.0", "result": "−19", "unit": "%"}, {"measurement": "Mean Optical Densities", "setting": "[4]; log10 concentration −5.0", "result": 0.328}, {"measurement": "Percent Growth", "setting": "[4]; log10 concentration −5.0", "result": 4, "unit": "%"}, {"measurement": "Mean Optical Densities", "setting": "[4]; log10 concentration −6.0", "result": 0.326}, {"measurement": "Percent Growth", "setting": "[4]; log10 concentration −6.0", "result": 4, "unit": "%"}, {"measurement": "Mean Optical Densities", "setting": "[4]; log10 concentration −7.0", "result": 1.208}, {"measurement": "Percent Growth", "setting": "[4]; log10 concentration −7.0", "result": 64, "unit": "%"}, {"measurement": "Mean Optical Densities", "setting": "[4]; log10 concentration −8.0", "result": 1.614}, {"measurement": "Percent Growth", "setting": "[4]; log10 concentration −8.0", "result": 92, "unit": "%"}, {"measurement": "TGI", "setting": "[5]; SK-MEL-5 (Melanoma)", "result": "5.33E−7"}, {"measurement": "Mean Optical Densities", "setting": "[5]; [22]", "result": 0.260}, {"measurement": "Percent Growth", "setting": "[5]; [22]", "result": "−58", "unit": "%"}, {"measurement": "Mean Optical Densities", "setting": "[5]; [23]", "result": 0.275}, {"measurement": "Percent Growth", "setting": "[5]; [23]", "result": "−56", "unit": "%"}, {"measurement": "Mean Optical Densities", "setting": "[5]; [24]", "result": 0.427}, {"measurement": "Percent Growth", "setting": "[5]; [24]", "result": "−31", "unit": "%"}, {"measurement": "Mean Optical Densities", "setting": "[5]; [25]", "result": 2.036}, {"measurement": "Percent Growth", "setting": "[5]; [25]", "result": 82, "unit": "%"}, {"measurement": "Mean Optical Densities", "setting": "[5]; [26]", "result": 2.375}, {"measurement": "Percent Growth", "setting": "[5]; [26]", "result": 102, "unit": "%"}, {"measurement": "TGI", "setting": "[6]; TK-10 (Renal Cancer)", "result": ">1.00E−4"}, {"measurement": "Mean Optical Densities", "setting": "[6]; [27]", "result": 0.610}, {"measurement": "Percent Growth", "setting": "[6]; [27]", "result": 18, "unit": "%"}, {"measurement": "Mean Optical Densities", "setting": "[6]; [28]", "result": 0.593}, {"measurement": "Percent Growth", "setting": "[6]; [28]", "result": 15, "unit": "%"}, {"measurement": "Mean Optical Densities", "setting": "[6]; [29]", "result": 0.572}, {"measurement": "Percent Growth", "setting": "[6]; [29]", "result": 12, "unit": "%"}, {"measurement": "Mean Optical Densities", "setting": "[6]; [30]", "result": 1.192}, {"measurement": "Percent Growth", "setting": "[6]; [30]", "result": 101, "unit": "%"}, {"measurement": "Mean Optical Densities", "setting": "[6]; [31]", "result": 1.202}, {"measurement": "Percent Growth", "setting": "[6]; [31]", "result": 103, "unit": "%"}, {"measurement": "TGI", "setting": "[7]; PC-3 (Prostate Cancer)", "result": ">1.00E−4"}, {"measurement": "Mean Optical Densities", "setting": "[7]; PC-3, log10 concentration −4.0", "result": 0.173}, {"measurement": "Percent Growth", "setting": "[7]; PC-3, log10 concentration −4.0", "result": 2, "unit": "%"}, {"measurement": "Mean Optical Densities", "setting": "[7]; PC-3, log10 concentration −5.0", "result": 0.200}, {"measurement": "Percent Growth", "setting": "[7]; PC-3, log10 concentration −5.0", "result": 9, "unit": "%"}, {"measurement": "Mean Optical Densities", "setting": "[7]; PC-3, log10 concentration −6.0", "result": 0.218}, {"measurement": "Percent Growth", "setting": "[7]; PC-3, log10 concentration −6.0", "result": 14, "unit": "%"}, {"measurement": "Mean Optical Densities", "setting": "[7]; PC-3, log10 concentration −7.0", "result": 0.486}, {"measurement": "Percent Growth", "setting": "[7]; PC-3, log10 concentration −7.0", "result": 85, "unit": "%"}, {"measurement": "Mean Optical Densities", "setting": "[7]; PC-3, log10 concentration −8.0", "result": 0.532}, {"measurement": "Percent Growth", "setting": "[7]; PC-3, log10 concentration −8.0", "result": 97, "unit": "%"}, {"measurement": "GI50", "setting": "[8]; K562", "result": 288, "unit": "nM"}, {"measurement": "CC50", "setting": "[8]; K562, read-out: LC50", "result": "> 100000", "unit": "nM"}, {"measurement": "GI50", "setting": "[9]; NCI-H226", "result": 272, "unit": "nM"}, {"measurement": "CC50", "setting": "[9]; NCI-H226, read-out: LC50", "result": "> 100000", "unit": "nM"}, {"measurement": "GI50", "setting": "[10]; NCI-H522", "result": 375, "unit": "nM"}, {"measurement": "CC50", "setting": "[10]; NCI-H522, read-out: LC50", "result": "> 100000", "unit": "nM"}, {"measurement": "GI50", "setting": "[11]; COLO 205", "result": 147, "unit": "nM"}, {"measurement": "CC50", "setting": "[11]; COLO 205, read-out: LC50", "result": 993, "unit": "nM"}, {"measurement": "GI50", "setting": "[12]; SW-620", "result": 285, "unit": "nM"}, {"measurement": "CC50", "setting": "[12]; SW-620, read-out: LC50", "result": "> 100000", "unit": "nM"}, {"measurement": "GI50", "setting": "[13]; SNB-75", "result": 222, "unit": "nM"}, {"measurement": "CC50", "setting": "[13]; SNB-75, read-out: LC50", "result": 1600, "unit": "nM"}, {"measurement": "GI50", "setting": "[14]; SK-OV-3", "result": 565, "unit": "nM"}, {"measurement": "CC50", "setting": "[14]; SK-OV-3, read-out: LC50", "result": "> 100000", "unit": "nM"}, {"measurement": "GI50", "setting": "[15]", "result": 2040, "unit": "nM"}, {"measurement": "CC50", "setting": "[15]; read-out: LC50", "result": "> 100000", "unit": "nM"}, {"measurement": "GI50", "setting": "[16]; MDA-MB-435", "result": 309, "unit": "nM"}, {"measurement": "CC50", "setting": "[16]; MDA-MB-435, read-out: LC50", "result": "> 100000", "unit": "nM"}]}]}
